Measurements: publication PMC6327999, “Hydroxyl-substituted double Schiff-base condensed 4-piperidone/cyclohexanones as potential anticancer agents with biological evaluation” (Journal of Enzyme Inhibition and Medicinal Chemistry, 2019)

Legend:
[1] = test system: human acute mononuclear granulocyte leukemia (THP-1); experiment: Cytotoxicity, MTT assay, THP-1; type: cell-based; settings: for IC50: Homo sapiens, THP-1, MTT, 24 hours; for THP-1 SI: quotient of the IC50 values towards nonmalignant LO2 cells
Source text: (§1) Compounds 2a–d, 3a–e, 4a–e, 5a–d, and 6a–c were screened against human neoplastic cell lines such as human lung carcinoma cells (A549), human gastric adenocarcinoma cells (SGC7901), human cervical carcinoma cells (HeLa), human liver hepatocellular carcinoma cell line (Hepg2), human chronic myelogenous leukemia cell line (K562), human acute mononuclear granulocyte leukemia (THP-1), human normal heptical cell line (LO2) (Table 1) using modified MTT assay (3-(4,5-dimethyl-2-thiazolyl)-2,5-diphenyl-2-H-tetrazolium bromide, MTT, Dojindo Laboratories, Tokyo, Japan). All cell lines were maintained at 37 °C in a humidified 5% CO2 and 95% air atmosphere. The HePG2 cell lines were cultured in DMEM containing 10% fetal bovine serum. Other cell lines were grown in medium 1640 and supplemented with 10% fetal bovine serum. […] Controls were prepared with 0.1% DMSO (v/v) only. The cells were seeded in a 96-well plate in 200 µL medium per well at a density of 1 × 10^4 cells/well for 24 hours. The cells were treated with serial concentrations of compound and incubated for 24 hours. Cells with only culture media were used as control. After the media was removed, 20 µL of MTT (5 mg/mL) was added then the plates were incubated for 4 hours at 37 °C in cell culture incubator. The MTT containing media were removed and then 150 µL of DMSO was added to dissolve the dark-blue formazan crystals. The optical density (OD) was measured by a multi-well plate reader (TECAN, Männedorf, Switzerland) at 570 nm. The results are expressed as a decrease in the cell viability (%) in comparison to untreated controls. The concentration of each compound was examined in triplicate, and the IC50 values are expressed in Table 1. The concentrations of the compounds were 50, 20, 10, 5, 2.5, 1, 0.5, 0.1, 0.05 and 0.01 µg/mL. Doxorubicin (DOX) and Curcumin were used as positive controls. […] The concentrations of curcumin used were 100, 50, 25, 12.5, 6.25, 3.125, 1, 0.5 and 0.1 µg/mL.

[2] = test system: human normal heptical cell line (LO2); experiment: Cytotoxicity, MTT assay, non-malignant LO2; type: cell-based; settings: 24 hours, non-malignant cells
Source text: as §1

[3] = test system: human lung carcinoma cells (A549); experiment: Cytotoxicity, MTT assay, A549; type: cell-based; settings: for IC50: Homo sapiens, A549, MTT, 24 hours; for A549 SI: quotient of the IC50 values towards nonmalignant LO2 cells
Source text: as §1

[4] = test system: human carcinoma cell lines A549, SGC7901, HePG2, HeLa, K562, THP-1; experiment: Cytotoxicity, MTT assay, panel of human carcinoma cell lines (average / overall); type: cell-based; settings: average over the six carcinoma cell lines; for IC50: Homo sapiens, read-out: Ave IC50
Source text: as §1
The cytotoxicity activities against human carcinoma cell lines A549, SGC7901, HePG2, HeLa, K562, THP-1 and cytotoxicity toward LO2 cell lines were evaluated by MTT method. DOX and curcumin were used as positive control. The selectivity index (SI) is the quotient of the IC50 values towards nonmalignant LO2 cells. […] Especially for 4a–e, 5a–d, and 6a–c, this ratio can reach about 92%.

[5] = test system: human cervical carcinoma cells (HeLa); experiment: Cytotoxicity, MTT assay, HeLa; type: cell-based; settings: for IC50: Homo sapiens, HeLa, MTT, 24 hours; for HeLa SI: quotient of the IC50 values towards nonmalignant LO2 cells
Source text: as §1

[6] = test system: human liver hepatocellular carcinoma cell line (Hepg2); experiment: Cytotoxicity, MTT assay, HePG2; type: cell-based; settings: for IC50: Homo sapiens, HepG2, MTT, 24 hours; for HePG2 SI: quotient of the IC50 values towards nonmalignant LO2 cells
Source text: as §1, with “µg/mL.” for “µg/mL. Doxorubicin (DOX) and Curcumin were used as positive controls.”

[7] = test system: human chronic myelogenous leukemia cell line (K562); experiment: Cytotoxicity, MTT assay, K562; type: cell-based; settings: for IC50: Homo sapiens, K562, MTT, 24 hours; for K562 SI: quotient of the IC50 values towards nonmalignant LO2 cells
Source text: as §1

[8] = test system: human gastric adenocarcinoma cells (SGC7901); experiment: Cytotoxicity, MTT assay, SGC7901; type: cell-based; settings: for IC50: Homo sapiens, SGC-7901, MTT, 24 hours; for SGC7901 SI: quotient of the IC50 values towards nonmalignant LO2 cells
Source text: as §1

HepG2 xenografts = experiment: In vivo antitumor efficacy, HepG2-bearing nude mice; set-up: species or system Balb/c nude mice; settings: DOX 1.0 mg/kg every two days for 20 days
Protocol: The antitumor effect was investigated on the seven-week-old female Balb/c nude mice (n = 30) weighing 19–21 grams (Shanghai Laboratory Animal Center). Briefly, 0.2 mL HepG2 cells (1 × 10^7/mL) were inoculated subcutaneously into the alar left of each mouse. On the third day after the inoculation, the HepG2-bearing mice were randomly divided into five groups (n = 6/group) and administrated the according drug or solvent. […] The control group was administrated of saline as negative control. The body weight and tumor volumes calculation were recorded from the day of treatment, and the tumor volumes were calculated using the following equation: tumor volume = length × (width)^2 × π/6. Animal experiments were reviewed and approved by the Binzhou Medical University Experimental Animal Committee.

Compound	IC50 [1] [µM]	THP-1 SI [1]	IC50 [2] [µM]	IC50 [3] [µM]	A549 SI [3]	IC50 [4] [µM]	Ave SI [4]	IC50 [5] [µM]	HeLa SI [5]	IC50 [6] [µM]	HePG2 SI [6]	IC50 [7] [µM]	K562 SI [7]	IC50 [8] [µM]	SGC7901 SI [8]	tumor growth inhibition (HepG2 xenografts)
COc1ccc(/C=N/c2cccc(/C=C3\CN(C)C/C(=C\c4cccc(/N=C/c5ccc(OC)cc5O)c4)C3=O)c2)c(O)c1 [4d]	1 ± 0.03	12.3	11.7 ± 0.1	2.6 ± 0.5	4.4	2.2	6.9	4.1 ± 0.1	2.8	1.11 ± 0.1	10.6	2 ± 0.02	6.0	2.3 ± 0.1	5.1	
COc1cc(Br)cc(/C=N/c2cccc(/C=C3\CN(C)C/C(=C\c4cccc(/N=C/c5cc(Br)cc(OC)c5O)c4)C3=O)c2)c1O [4e]	0.9 ± 0.1	11.8	10.9 ± 0.2	1.5 ± 0.3	7.2	1.7	7.2	2.6 ± 0.1	4.2	1.27 ± 0.02	8.6	1.8 ± 0.01	5.9	2 ± 0.3	5.4	
O=C1/C(=C/c2cc(/N=C/c3cccc(O)c3O)ccc2F)CNC/C1=C\c1cc(/N=C/c2cccc(O)c2O)ccc1F [5a]	1 ± 0.3	18.5	17.6 ± 1	2.8 ± 0.2	6.4	1.6	12.1	1.1 ± 0.4	15.0	1.8 ± 0.05	9.7	1.5 ± 0.1	11.7	1.6 ± 0.1	11.2	
O=C1/C(=C/c2cc(/N=C/c3cc(O)ccc3O)ccc2F)CNC/C1=C\c1cc(/N=C/c2cc(O)ccc2O)ccc1F [5b]	2.2 ± 0.1	6.4	14.1 ± 1	3 ± 0.1	4.8	3.3	5.4	4.2 ± 0.5	3.4	3.3 ± 0.2	4.3	5.7 ± 0.4	2.5	1.3 ± 0.2	10.9	
COc1ccc(/C=N/c2ccc(F)c(/C=C3\CNC/C(=C\c4cc(/N=C/c5ccc(OC)cc5O)ccc4F)C3=O)c2)c(O)c1 [5d]	2.1 ± 0.2	6.8	14.6 ± 1.26	2.5 ± 0.1	5.8	2.4	6.7	3.8 ± 0.2	3.8	2.7 ± 0.2	5.6	1.5 ± 0.1	9.7	1.8 ± 0.1	8.3	
CN1C/C(=C\c2cc(/N=C/c3cccc(O)c3O)ccc2F)C(=O)/C(=C/c2cc(/N=C/c3cccc(O)c3O)ccc2F)C1 [6a]	1.5 ± 0.2	14.2	21.7 ± 2	1.9 ± 0.1	11.6	2.2	10.2	2.2 ± 0.2	9.9	2.6 ± 0.1	8.4	2.8 ± 0.2	7.7	2.4 ± 0.1	9.2	
CN1C/C(=C\c2cc(/N=C/c3cc(O)ccc3O)ccc2F)C(=O)/C(=C/c2cc(/N=C/c3cc(O)ccc3O)ccc2F)C1 [6b]	1.8 ± 0.1	12.0	21.3 ± 2	2.3 ± 0.1	9.1	3	7.9	3.4 ± 0.4	6.2	2.7 ± 0.2	7.8	5.1 ± 0.3	4.2	2.6 ± 0.1	8.3	
CN1C/C(=C\c2cc(/N=C/c3ccc(O)c(O)c3O)ccc2F)C(=O)/C(=C/c2cc(/N=C/c3ccc(O)c(O)c3O)ccc2F)C1 [6c]	1.6 ± 0.1	11.4	18.4 ± 1	1.5 ± 0.2	12.5	2	9.5	2.5 ± 0.1	7.5	2.6 ± 0.2	7.1	1.9 ± 0.2	9.5	2 ± 0.2	9.3	
COc1cc(/C=C/C(=O)CC(=O)/C=C/c2ccc(O)c(OC)c2)ccc1O [Curcumin, reference compound]	21.7 ± 0.4	1.3	27.5 ± 0.4	19.4 ± 0.2	1.4	20.8	1.4	23.8 ± 1.3	1.2	16 ± 0.2	1.7	22.1 ± 0.8	1.2	21.5 ± 0.3	1.3	
COc1cccc2c1C(=O)c1c(O)c3c(c(O)c1C2=O)C[C@@](O)(C(=O)CO)C[C@@H]3O[C@H]1C[C@H](N)[C@H](O)[C@H](C)O1 [DOX, Doxorubicin, reference compound]	0.5 ± 0.2		6.1 ± 0.5	3.8 ± 0.1		2.6		2.1 ± 0.3		0.6 ± 0.1		1.6 ± 0.2		7 ± 0.4		suppressed significantly
